The values that follow come from ChEMBL document CHEMBL5052842, “Pharmaceutical compounds and their use as inhibitors of ubiquitin specific protease 19 (usp19)” (2020).

This assay deals with T1, Ubiquitin carboxyl-terminal hydrolase 19 (Homo sapiens, UniProt O94966).
T1 sequence (O94966 whole entry): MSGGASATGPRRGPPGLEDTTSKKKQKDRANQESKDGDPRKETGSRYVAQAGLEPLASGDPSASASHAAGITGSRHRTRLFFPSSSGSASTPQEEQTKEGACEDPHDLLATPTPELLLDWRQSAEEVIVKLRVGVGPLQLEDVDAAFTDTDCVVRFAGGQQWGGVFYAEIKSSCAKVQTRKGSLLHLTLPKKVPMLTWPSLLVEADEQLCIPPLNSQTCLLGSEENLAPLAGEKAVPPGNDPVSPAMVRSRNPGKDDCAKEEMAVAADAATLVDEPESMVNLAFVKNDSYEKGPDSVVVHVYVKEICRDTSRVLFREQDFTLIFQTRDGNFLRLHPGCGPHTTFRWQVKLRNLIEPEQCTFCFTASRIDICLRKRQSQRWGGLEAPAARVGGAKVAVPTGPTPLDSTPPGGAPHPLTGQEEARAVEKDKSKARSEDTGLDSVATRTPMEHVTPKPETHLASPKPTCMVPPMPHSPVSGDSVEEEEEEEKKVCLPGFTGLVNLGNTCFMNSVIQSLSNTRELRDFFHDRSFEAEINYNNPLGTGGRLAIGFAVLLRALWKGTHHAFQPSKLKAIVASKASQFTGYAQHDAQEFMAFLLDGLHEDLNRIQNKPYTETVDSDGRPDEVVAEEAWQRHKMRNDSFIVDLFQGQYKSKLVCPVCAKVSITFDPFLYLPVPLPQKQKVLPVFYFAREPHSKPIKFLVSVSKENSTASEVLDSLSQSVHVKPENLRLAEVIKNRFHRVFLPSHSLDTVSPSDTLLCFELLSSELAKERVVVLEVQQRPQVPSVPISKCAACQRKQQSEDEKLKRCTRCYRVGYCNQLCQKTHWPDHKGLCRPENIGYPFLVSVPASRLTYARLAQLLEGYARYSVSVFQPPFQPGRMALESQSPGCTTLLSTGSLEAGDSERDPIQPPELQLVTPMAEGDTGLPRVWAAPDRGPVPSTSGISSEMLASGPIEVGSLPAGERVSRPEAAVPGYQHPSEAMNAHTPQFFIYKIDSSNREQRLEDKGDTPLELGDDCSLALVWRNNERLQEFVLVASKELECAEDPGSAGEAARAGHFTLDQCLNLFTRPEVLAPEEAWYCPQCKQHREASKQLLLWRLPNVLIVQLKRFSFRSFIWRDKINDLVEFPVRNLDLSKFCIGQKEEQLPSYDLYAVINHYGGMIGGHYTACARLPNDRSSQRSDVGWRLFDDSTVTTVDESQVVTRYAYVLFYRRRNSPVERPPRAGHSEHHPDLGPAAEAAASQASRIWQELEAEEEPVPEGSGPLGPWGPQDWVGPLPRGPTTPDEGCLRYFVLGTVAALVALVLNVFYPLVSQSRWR
Nature of the assay: Inhibition of C-terminal His6-tagged recombinant human USP19 using iso-peptide ubiquitin-Lys-TAMRA as substrate incubated for 30 mins and measured after 90 mins by fluorescent polarization assay.

Each structure is given as a SMILES string.

Usually IC50 stands for the concentration at which inhibition is half-maximal. As for `O=C(N1CC[C@@](O)(Cn2ccc(C3CC3)cc2=O)C2(CCCC2)C1)N1CCNC[C@H]1c1ccccc1`, the IC50 was below 500 nM.

With `O=C(N1CCC(O)(Cn2cnc(-c3ccccc3)cc2=O)C2(CCOCC2)C1)N1CCOC[C@H]1c1ccccc1` (some centres not stated), the IC50 was below 500 nM.

Consider `CC1(C)CN(C(=O)N2CCNC[C@H]2c2ccccc2)CC[C@@]1(O)Cn1ccc(-c2ccccc2)cc1=O`, for which the IC50 was below 500 nM.

With `CC1(C)CN(C(=O)N2CCOC[C@H]2c2ccccc2)CC[C@@]1(O)Cn1cnc(-c2ccccc2)cc1=O`, the IC50 was below 500 nM.

`O=C(NCc1ccc(F)c(F)c1)N1CC[C@@](O)(Cn2cnc(-c3ccccc3)cc2=O)C2(CCCC2)C1`: the IC50 is below 500 nM.

On to `O=C(N1CCC(O)(Cn2cnc(-c3ccccc3)cc2=O)C2(CCCC2)C1)N1CCOCC1c1cccs1` (configuration not stated), for which the IC50 is below 500 nM.

In the case of `Cn1cc(-c2cc(=O)n(C[C@]3(O)CCN(C(=O)N4CCOC[C@H]4c4ccc(F)cc4)CC34CCCC4)cn2)cn1`, the IC50 is below 500 nM.

As for `O=C(NCc1cccs1)N1CC[C@@](O)(Cn2cnc(-c3ccccc3)cc2=O)C2(CCCC2)C1`, the IC50 is below 500 nM.

As to `CN(C)c1cc(=O)n(C[C@]2(O)CCN(C(=O)N3CCOC[C@H]3c3ccccc3)CC23CCCC3)cn1`, the IC50 was below 500 nM.

As to `Cn1cc(-c2cc(=O)n(C[C@]3(O)CCN(C(=O)N4CCNC[C@H]4c4ccccc4)CC34CCCC4)cn2)cn1`, the IC50 is below 500 nM.

`O=C(N1CC[C@@](O)(Cn2cnc(Cl)cc2=O)C2(CCCC2)C1)N1CCOC[C@H]1c1ccccc1`: the IC50 is below 500 nM.

With `O=C(N1CCC(O)(Cn2cnc(-c3ccccc3)cc2=O)C2(CCCCC2)C1)N1CCOC[C@H]1c1ccccc1` (some centres not stated), the IC50 was below 500 nM.

`O=C(N[C@H](c1ccccc1)C(F)(F)F)N1CC[C@@](O)(Cn2ccc(-c3ccccc3)cc2=O)C2(CCCC2)C1`: the IC50 is below 500 nM.

For `O=C(N1CC[C@@](O)(Cn2cnc(Cl)cc2=O)C2(CCCC2)C1)N1CCOC[C@H]1c1ccc(F)cc1`, the IC50 was below 500 nM.

Turning to `CNc1cc(=O)n(C[C@]2(O)CCN(C(=O)N3CCNC[C@H]3c3ccccc3)CC23CCCC3)cn1`, the IC50 is below 500 nM.

Turning to `O=C(N1CC[C@@](O)(Cn2cnc(-c3ccc(F)cc3)cc2=O)C2(CCCC2)C1)N1CCNC[C@H]1c1ccccc1`, the IC50 is below 500 nM.

As to `Cn1nccc1-c1cc(=O)n(C[C@]2(O)CCN(C(=O)N3CCOC[C@H]3c3ccc(F)cc3)CC23CCCC3)cn1`, the IC50 is below 500 nM.

`O=C(NCc1ccco1)N1CC[C@@](O)(Cn2cnc(-c3ccccc3)cc2=O)C2(CCCC2)C1`: the IC50 is below 500 nM.

For `O=C(N1CC[C@@](O)(Cn2cnc(-c3ccccc3)cc2=O)C2(CCCC2)C1)N1CCOC[C@H]1c1ccc(F)cc1`, the IC50 is below 500 nM.

On to `CC1(C)CN(C(=O)N2CCOC[C@H]2c2ccccc2)CC[C@@]1(O)Cn1ccc(-c2ccccc2)cc1=O`, for which the IC50 was below 500 nM.

As for `O=C(N1CC[C@@](O)(Cn2cnc(-c3ccccc3F)cc2=O)C2(CCCC2)C1)N1CCNC[C@H]1c1ccccc1`, the IC50 is below 500 nM.

Consider `CC1(C)CN(C(=O)N2CCNC[C@H]2c2ccccc2)CC[C@@]1(O)Cn1cnc(-c2ccccc2)cc1=O`, for which the IC50 was below 500 nM.

`O=C(N1CC[C@@](O)(Cn2cnc(C3CC3)cc2=O)C2(CCCC2)C1)N1CCNC[C@H]1c1ccccc1`: the IC50 is below 500 nM.

Take `COc1ccccc1-c1cc(=O)n(C[C@]2(O)CCN(C(=O)N3CCNC[C@H]3c3ccccc3)CC23CCCC3)cn1`: the IC50 was below 500 nM.

`O=C(N1CC[C@@](O)(Cn2cnc(N3CCCC3)cc2=O)C2(CCCC2)C1)N1CCNC[C@H]1c1ccccc1`: the IC50 was below 500 nM.

For `O=C(N1CC[C@@](O)(Cn2ccc(-c3ccccc3)cc2=O)C2(CCCC2)C1)N1CCNC[C@H]1c1ccccc1`, the IC50 is below 500 nM.

Turning to `CN(C)C(=O)c1cn(C[C@]2(O)CCN(C(=O)N3CCOC[C@H]3c3ccccc3)CC2(C)C)c(=O)cc1-c1ccccc1`, the IC50 was below 500 nM.

Regarding `O=C(N1CC[C@@](O)(Cn2cnc(-c3ccccc3)cc2=O)C2(CCCC2)C1)N1CCOC[C@H]1c1ccccc1`, the IC50 is below 500 nM.

Consider `Cc1cc(=O)n(C[C@]2(O)CCN(C(=O)N3CCNC[C@H]3c3ccccc3)CC23CCCC3)cn1`, for which the IC50 is below 500 nM.

With `CN1CCN(C(=O)N2CC[C@@](O)(Cn3cnc(-c4ccccc4)cc3=O)C3(CCCC3)C2)[C@H](c2ccccc2)C1`, the IC50 is below 500 nM.

On to `O=C(N1CC[C@@](O)(Cn2cnc(N3CCCC3)cc2=O)C2(CCCC2)C1)N1CCOC[C@H]1c1ccccc1`, for which the concentration for half-maximal inhibition (IC50) is below 500 nM.

Take `O=C(N1CC[C@@](O)(Cn2cnc(-c3ccccc3)cc2=O)C2(CCCC2)C1)N1CCNC[C@H]1c1ccccc1`: the IC50 was below 500 nM.

`O=C(N1CC[C@@](O)(Cn2cnc(C3CC3)cc2=O)C2(CCCC2)C1)N1CCOC[C@H]1c1ccccc1`: the IC50 was below 500 nM.

For `O=C(N[C@H](c1ccccc1)C(F)(F)F)N1CC[C@@](O)(Cn2cnc(-c3ccccc3)cc2=O)C2(CCCC2)C1`, the IC50 is below 500 nM.

As to `Cn1nccc1-c1ccn(C[C@]2(O)CCN(C(=O)N3CCNC[C@H]3c3ccccc3)CC23CCCC3)c(=O)c1`, the IC50 was below 500 nM.

In the case of `O=C(N1CCC(O)(Cn2cnc(-c3ccccc3)cc2=O)C2(CCC2)C1)N1CCNC[C@H]1c1ccccc1` (some centres not stated), the IC50 was below 500 nM.

Consider `O=C(NCc1c(F)cccc1F)N1CC[C@@](O)(Cn2cnc(-c3ccccc3)cc2=O)C2(CCCC2)C1`, for which the IC50 is below 500 nM.

`O=C(N1CCC(O)(Cn2cnc(-c3ccccc3)cc2=O)C2(CCC2)C1)N1CCOC[C@H]1c1ccccc1` (some centres not stated): the IC50 was below 500 nM.

On to `Cn1cc(-c2cc(=O)n(C[C@]3(O)CCN(C(=O)N4CCOC[C@H]4c4ccccc4)CC34CCCC4)cn2)cn1`, for which the half-maximal inhibitory concentration (IC50) was below 500 nM.

As to `CN(C)c1ccc(-c2cc(=O)n(C[C@]3(O)CCN(C(=O)N4CCNC[C@H]4c4ccccc4)CC34CCCC4)cn2)cc1`, the IC50 was below 500 nM.

In the case of `O=C(N1CCC(O)(Cn2ncc(-c3ccccc3)cc2=O)C2(CCCC2)C1)N1CCOC[C@H]1c1ccccc1` (some centres not stated), the IC50 is below 500 nM.

For the molecule `O=C(NCc1ccccc1F)N1CCC(O)(Cn2cnc(-c3ccccc3)cc2=O)C2(CCCC2)C1` (configuration not stated), the IC50 was below 500 nM.

`O=C(N1CC[C@@](O)(Cn2cnc(-c3ccccc3)cc2=O)C2(CCCC2)C1)N1CCN(CC(F)(F)F)C[C@H]1c1ccccc1`: the IC50 is below 500 nM.

For `O=C(N1CC[C@@](O)(Cn2cnc(-c3ccccc3)cc2=O)C2(CCOCC2)C1)N1CCNC[C@H]1c1ccccc1`, the IC50 was below 500 nM.

For the molecule `O=C(N1CC[C@@](O)(Cn2cnc(-c3ccccc3)cc2=O)C2(CCCC2)C1)N1CCC[C@H]1c1ccccc1`, the IC50 is below 500 nM.

In the case of `O=C(N1CC[C@@](O)(Cn2cnc(-c3ccccc3)cc2=O)C2(CCCC2)C1)N1CCNC[C@H]1c1cccc(F)c1`, the IC50 is below 500 nM.

`O=C(N1CCC(O)(Cn2cnc(-c3ccccc3)cc2=O)C2(CCCCC2)C1)N1CCNC[C@H]1c1ccccc1` (some centres not stated): the IC50 was below 500 nM.

As to `O=C(N1CCC(O)(Cn2cnc(-c3ccccc3)cc2=O)CC1)N1CCNC[C@H]1c1ccccc1`, the IC50 was below 500 nM.

`Cn1nccc1-c1cc(=O)n(C[C@]2(O)CCN(C(=O)N3CCNC[C@H]3c3ccccc3)CC23CCCC3)cn1`: the IC50 is below 500 nM.

In the case of `O=C(N1CC[C@@](O)(Cn2cnc(-c3cccc(F)c3)cc2=O)C2(CCCC2)C1)N1CCNC[C@H]1c1ccccc1`, the IC50 was below 500 nM.

In the case of `O=C(N1CC[C@@](O)(Cn2ccc(Cl)cc2=O)C2(CCCC2)C1)N1CCNC[C@H]1c1ccccc1`, the IC50 was below 500 nM.

With `COc1cc(=O)n(C[C@]2(O)CCN(C(=O)N3CCNC[C@H]3c3ccccc3)CC23CCCC3)cn1`, the IC50 was below 500 nM.

Consider `O=C(NCc1cccc(F)c1)N1CC[C@@](O)(Cn2cnc(-c3ccccc3)cc2=O)C2(CCCC2)C1`, for which the IC50 is below 500 nM.

For the molecule `O=C(NCc1cccc(F)c1F)N1CC[C@@](O)(Cn2cnc(-c3ccccc3)cc2=O)C2(CCCC2)C1`, the IC50 was below 500 nM.

`Cn1nccc1-c1cc(=O)n(C[C@]2(O)CCN(C(=O)N3CCOC[C@H]3c3ccccc3)CC23CCCC3)cn1`: the IC50 is below 500 nM.

As to `O=C(NCC1CC(F)(F)C1)N1CC[C@@](O)(Cn2cnc(-c3ccccc3)cc2=O)C2(CCCC2)C1`, the IC50 is below 500 nM.

`O=C(NCc1ccc(F)cc1F)N1CC[C@@](O)(Cn2cnc(-c3ccccc3)cc2=O)C2(CCCC2)C1`: the IC50 is below 500 nM.
